Data published in patent publication US20160242416A1, “FUNGICIDAL ISOXAZOLINE CARBINOLS” (E I DU PONT DE NEMOURS AND COMPANY, priority 2015, published 2016).

Key:
[1] = tested on: Zymoseptoria tritici; experiment: Test E: wheat leaf blotch, preventive spray on wheat seedlings; details: 100 = 100% disease control; for Test E rating (% disease control): wheat leaf blotch, 0 = no control
[2] = tested on: Stagonospora nodorum; experiment: Test D: wheat glume blotch, preventive spray on wheat seedlings; details: 100 = 100% disease control; for Test D rating (% disease control): wheat glume blotch, 0 = no control
From the text: (§1) General protocol for preparing test solutions for Tests A-G: the test compounds were first dissolved in acetone in an amount equal to 3% of the final volume and then suspended at the desired concentration (in ppm) in acetone and purified water (50/50 mix by volume) containing 250 ppm of the surfactant PEG400 (polyhydric alcohol esters). The resulting test suspensions were then used in Tests A-G. Compounds were sprayed at a concentration of 50 ppm (*) or 10 ppm to the point of run-off on the test plants, the equivalent of a rate of 200 g/ha or 40 g/ha, respectively.
The test solution was sprayed to the point of run-off on wheat seedlings. The following day the seedlings were inoculated with a spore suspension of Stagonospora nodorum (also known as Septoria nodorum; the causal agent of wheat glume blotch) and incubated in a saturated atmosphere at 20° C. for 48 h, and then moved to a growth chamber at 20° C. for 6 days, after which time visual disease ratings were made.
(§2) Compounds with an asterisks (*) were applied at a concentration of 50 ppm, otherwise test solutions were applied at 10 ppm.

[3] = tested on: Botrytis cinerea; experiment: Test B: gray mold, preventive spray on tomato seedlings; details: 100 = 100% disease control; for Test B rating (% disease control): gray mold on tomato, 0 = no control
[4] = tested on: Puccinia recondita f sp. tritici; experiment: Test F: wheat leaf rust, preventive spray on wheat seedlings; details: 100 = 100% disease control; for Test F rating (% disease control): wheat leaf rust, 0 = no control
[5] = tested on: Erysiphe graminis f sp. tritici; experiment: Test G: wheat powdery mildew, preventive spray on wheat seedlings; details: 100 = 100% disease control; for Test G rating (% disease control): wheat powdery mildew, 0 = no control
From the text: as §1
The test solution was sprayed to the point of run-off on wheat seedlings. The following day the seedlings were inoculated with a spore dust of Erysiphe graminis f sp. tritici, (the causal agent of wheat powdery mildew) and incubated in a growth chamber at 20° C. for 8 days, after which time visual disease ratings were made.
as §2

[6] = 10 ppm test solution, 0 = no control relative to controls

Structure (SMILES) | Test E rating (% disease control) ([1]; 10 ppm) | Test D rating (% disease control) ([2]; 10 ppm) | Test B rating (% disease control) ([3]; 10 ppm) | Test F rating (% disease control) ([4]; 10 ppm) | Test G rating (% disease control) ([5]; 10 ppm) | further results
CC(C)(C)C(O)(Cn1cncn1)C1=NOC(COc2ccc(C(F)(F)F)cc2)C1 (single isomer, unassigned) [Compound 81] | 95% | 100% | 57% | 100% | 100% | –
OC(Cn1cncn1)(C1=NOC(c2ccc(Cl)cc2)C1)c1ccc(Cl)cc1Cl (single isomer, unassigned) [Compound 140] | 67% | 82% | 0% | 100% | 99% | –
CC(C)(C)C(O)(Cn1cncn1)C1=NOC(COC2CCCCC2)C1 (single isomer, unassigned) [Compound 91] | 2% | 20% | 0% | 0% | 56% | –
CC(C)(C)C(O)(Cn1cncn1)C1=NOC(COc2ccc(I)cc2)C1 (single isomer, unassigned) [Compound 184] | 94% | 100% | 44% | 100% | 100% | –
OC(Cn1cncn1)(C1=NOC(c2ccc(-n3ccc(C(F)(F)F)n3)cc2)C1)c1ccc(Cl)cc1 (single isomer, unassigned) [Compound 149] | 38% | 0% | 0% | 36% | 76% | –
CC(C)(C)C(O)(Cn1cncn1)C1=NOC(COc2ccc(F)cc2)C1 (single isomer, unassigned) [Compound 80] | 1% | 100% | 82% | 100% | 99% | –
CC(C)(C)CC(O)(Cn1cncn1)C1=NOC(Cc2ccc(C(F)(F)F)cc2)C1 (single isomer, unassigned) [Compound 227] | – | – | – | – | – | Test E disease control rating [1, 6]: 29%; Test D disease control rating [2, 6]: 73%; Test B disease control rating [3, 6]: 0%; Test F disease control rating [4, 6]: 100%; Test G disease control rating [5, 6]: 100%
CCC(C)(C)C(O)(Cn1cncn1)C1=NOC(Cc2ccc(Cl)cc2)C1 (single isomer, unassigned) [Compound 18] | 6% | 87% | 0% | 100% | 99% | –
CC(C)(C)C(O)(Cn1cncn1)C1=NOC(CO[Si](C)(C)C(C)(C)C)C1 (single isomer, unassigned) [Compound 10] | 0% | 0% | 0% | 19% | 13% | –
OC(Cn1cncn1)(C1=NOC(COc2ccc(F)cc2)C1)c1ccc(Cl)cc1 (single isomer, unassigned) [Compound 162] | 76% | 96% | 0% | 100% | 100% | –
CC1(C(O)(Cn2cncn2)C2=NOC(c3ccc(Cl)cc3)C2)CC1 (single isomer, unassigned) [Compound 127] | 9% | 98% | 0% | 98% | 98% | –
OC(Cc1ccccc1)(Cn1cncn1)C1=NOC(c2ccc(Cl)cc2)C1 (single isomer, unassigned) [Compound 121] | – | – | – | – | – | Test E rating (% disease control) ([1]; 50 ppm (asterisk)): 62%; Test D rating (% disease control) ([2]; 50 ppm (asterisk)): 100%; Test B rating (% disease control) ([3]; 50 ppm (asterisk)): 100%; Test F rating (% disease control) ([4]; 50 ppm (asterisk)): 100%; Test G rating (% disease control) ([5]; 50 ppm (asterisk)): 100%
OC(Cn1cncn1)(C1=NOC(c2ccc(Cl)cc2)C1)c1ccc(Br)cc1 (single isomer, unassigned) [Compound 180] | 1% | 99% | 0% | 100% | 100% | –
OC(Cn1cncn1)(C1=NOC(c2ccc(Br)cc2)C1)c1ccc(Cl)cc1 (single isomer, unassigned) [Compound 179] | 0% | 0% | 0% | 100% | 91% | –
CC(C)(C)C(O)(Cn1cncn1)C1=NOC(Cc2ccccc2)C1 (single isomer, unassigned) [Compound 87] | 1% | 99% | 83% | 99% | 98% | –
CCC(C)(C)C(O)(Cn1cncn1)C1=NOC(COc2ccc(Cl)cc2)C1 (single isomer, unassigned) [Compound 186] | 66% | 100% | 99% | 100% | 100% | –
CC(C)(C)C(O)(Cn1cncn1)C1=NOC(COc2ccc(OC(F)(F)F)cc2)C1 (single isomer, unassigned) [Compound 25] | 0% | 59% | 0% | 99% | 100% | –
CC(C)(C)C(O)(Cn1cncn1)C1=NOC(Cn2cc(Br)cn2)C1 (single isomer, unassigned) [Compound 41] | 0% | 0% | 0% | 41% | 90% | –
CC(C)(C)C(O)(Cn1cncn1)C1=NOC(CSc2ccccc2)C1 (single isomer, unassigned) [Compound 74] | 13% | 0% | 44% | 0% | 56% | –
OC(Cn1cncn1)(C1=NOC(c2ccc(-n3ccc(C(F)(F)F)n3)cc2)C1)c1ccc(Cl)cc1 (single isomer, unassigned) [Compound 148] | 92% | 59% | 0% | 100% | 100% | –
CC(C)(C)C(O)(Cn1cncn1)C1=NOC(COCc2ccccc2)C1 (single isomer, unassigned) [Compound 59] | 2% | 92% | 0% | 80% | 89% | –
OC(Cn1cncn1)(C1=NOC(c2cnccn2)C1)c1ccc(Cl)cc1 (single isomer, unassigned) [Compound 157] | 0% | 0% | 0% | 0% | 26% | –
OC(Cn1cncn1)(C1=NOC(c2ccc(Cl)cc2)C1)C1CCCCC1 (single isomer, unassigned) [Compound 196] | 12% | 99% | 0% | 100% | 100% | –
